Test results as given in the CheMixHub ionic liquid set.

Assay: xn = mol fraction of the nth substance listed

CCCCCCCCCCCCOS(=O)(=O)[O-].[Na+] + CCCO + O
298 K, 100 kPa, frequency 0.001 MHz
Conditions | electrical conductivity [S/m]
x2 = 0.01543, x1 = 3.435e-05 | 0.0146
x2 = 0.02615, x3 = 0.9738 | 0.033
x2 = 0.04737, x3 = 0.9525 | 0.0508
x2 = 0.07172, x3 = 0.9277 | 0.102
x2 = 0.07173, x3 = 0.9279 | 0.0751

298.15 K, 101 kPa
Conditions | electrical conductivity [S/m]
x2 = 0, x1 = 3.24e-06 | 0.001447
x2 = 0, x1 = 8.11e-06 | 0.003433
x2 = 0, x1 = 1.64e-05 | 0.006697
x2 = 0, x1 = 2.505e-05 | 0.01006
x2 = 0, x1 = 2.991e-05 | 0.0119
x2 = 0, x1 = 3.478e-05 | 0.01378
x2 = 0, x1 = 3.964e-05 | 0.01564
x2 = 0, x1 = 5.063e-05 | 0.01999
x2 = 0, x1 = 6.198e-05 | 0.02434
x2 = 0, x1 = 7.406e-05 | 0.02896
x2 = 0, x1 = 8.09e-05 | 0.03151
x2 = 0, x1 = 8.667e-05 | 0.03369
x2 = 0, x1 = 9.135e-05 | 0.03548
x2 = 0, x1 = 9.694e-05 | 0.03753
x2 = 0, x1 = 0.0001016 | 0.03931
x2 = 0, x1 = 0.000107 | 0.04131
x2 = 0, x1 = 0.0001175 | 0.0452
x2 = 0, x1 = 0.0001223 | 0.047
x2 = 0, x1 = 0.0001268 | 0.04874
x2 = 0, x1 = 0.0001315 | 0.0504
x2 = 0, x1 = 0.0001364 | 0.05202
x2 = 0, x1 = 0.0001411 | 0.05353
x2 = 0, x1 = 0.0001454 | 0.05471
x2 = 0, x1 = 0.0001541 | 0.05656
x2 = 0, x1 = 0.0001586 | 0.05737
x2 = 0, x1 = 0.0001631 | 0.05814
x2 = 0, x1 = 0.0001692 | 0.05912
x2 = 0, x1 = 0.0001735 | 0.05977
x2 = 0, x1 = 0.000178 | 0.06043
x2 = 0, x1 = 0.0001825 | 0.06112
x2 = 0, x1 = 0.0001892 | 0.06206
x2 = 0, x1 = 0.0001935 | 0.06269
x2 = 0, x1 = 0.0002002 | 0.06378
x2 = 0, x1 = 0.0002048 | 0.06444
x2 = 0, x1 = 0.0002097 | 0.06508
x2 = 0, x1 = 0.000214 | 0.06575
x2 = 0.007626, x1 = 0.0004015 | 0.09227
x2 = 0.007627, x1 = 0.0002602 | 0.06737
x2 = 0.007627, x1 = 0.0002829 | 0.07143
x2 = 0.007627, x1 = 0.0003124 | 0.07668
x2 = 0.007627, x1 = 0.0003456 | 0.08254
x2 = 0.007628, x1 = 0.0001267 | 0.04228
x2 = 0.007628, x1 = 0.000135 | 0.04399
x2 = 0.007628, x1 = 0.0001447 | 0.04592
x2 = 0.007628, x1 = 0.0001683 | 0.05047
x2 = 0.007628, x1 = 0.0001845 | 0.05346
x2 = 0.007628, x1 = 0.0002013 | 0.05663
x2 = 0.007628, x1 = 0.0002199 | 0.06003
x2 = 0.007628, x1 = 0.0002404 | 0.06381
x2 = 0.007629, x1 = 1.192e-05 | 0.004556
x2 = 0.007629, x1 = 1.321e-05 | 0.005113
x2 = 0.007629, x1 = 1.651e-05 | 0.00628
x2 = 0.007629, x1 = 1.962e-05 | 0.007449
x2 = 0.007629, x1 = 2.274e-05 | 0.00856
x2 = 0.007629, x1 = 2.623e-05 | 0.009738
x2 = 0.007629, x1 = 2.934e-05 | 0.01087
x2 = 0.007629, x1 = 3.228e-05 | 0.01189
x2 = 0.007629, x1 = 3.595e-05 | 0.01317
x2 = 0.007629, x1 = 3.925e-05 | 0.01435
x2 = 0.007629, x1 = 4.255e-05 | 0.01551
x2 = 0.007629, x1 = 4.823e-05 | 0.0178
x2 = 0.007629, x1 = 5.135e-05 | 0.0189
x2 = 0.007629, x1 = 5.465e-05 | 0.02006
x2 = 0.007629, x1 = 5.795e-05 | 0.02124
x2 = 0.007629, x1 = 6.474e-05 | 0.02366
x2 = 0.007629, x1 = 6.804e-05 | 0.02483
x2 = 0.007629, x1 = 7.152e-05 | 0.02603
x2 = 0.007629, x1 = 7.464e-05 | 0.02715
x2 = 0.007629, x1 = 7.776e-05 | 0.02824
x2 = 0.007629, x1 = 8.088e-05 | 0.02934
x2 = 0.007629, x1 = 8.418e-05 | 0.03045
x2 = 0.007629, x1 = 8.95e-05 | 0.03235
x2 = 0.007629, x1 = 9.426e-05 | 0.03397
x2 = 0.007629, x1 = 9.995e-05 | 0.03577
x2 = 0.007629, x1 = 0.0001049 | 0.03716
x2 = 0.007629, x1 = 0.0001146 | 0.03955
x2 = 0.01553, x1 = 4.687e-05 | 0.01553
x2 = 0.01553, x1 = 5.322e-05 | 0.01769
x2 = 0.01553, x1 = 7.282e-05 | 0.0238
x2 = 0.01553, x1 = 7.842e-05 | 0.02558
x2 = 0.01553, x1 = 8.757e-05 | 0.02822
x2 = 0.01553, x1 = 9.765e-05 | 0.03081
x2 = 0.01553, x1 = 0.0001083 | 0.03351
x2 = 0.01553, x1 = 0.0001201 | 0.03619
x2 = 0.01553, x1 = 0.0001298 | 0.03847
x2 = 0.01553, x1 = 0.0001533 | 0.04391
x2 = 0.01553, x1 = 0.0001677 | 0.04711
x2 = 0.01553, x1 = 0.0001815 | 0.05015
x2 = 0.01553, x1 = 0.0001979 | 0.05361
x2 = 0.01553, x1 = 0.0002319 | 0.06058
x2 = 0.01553, x1 = 0.0002511 | 0.06442
x2 = 0.01553, x1 = 0.0002703 | 0.06822
x2 = 0.01553, x1 = 0.0002877 | 0.0716
x2 = 0.01553, x1 = 0.0003082 | 0.07551
x2 = 0.01554, x1 = 5.98e-06 | 0.002351
x2 = 0.01554, x1 = 1.176e-05 | 0.004274
x2 = 0.01554, x1 = 1.811e-05 | 0.006392
x2 = 0.01554, x1 = 2.428e-05 | 0.008288
x2 = 0.01554, x1 = 2.894e-05 | 0.009768
x2 = 0.01554, x1 = 3.492e-05 | 0.01173

CCCCCCCCn1cc[n+](C)c1.[Cl-] + CCO
viscosity [mPa·s], 101 kPa
Conditions | x2 = 0.0449 | x2 = 0.1305 | x2 = 0.6858 | x2 = 0.8809 | x2 = 0.9794
298.15 K | 12600 | 5400 | – | – | –
313.15 K | – | – | 14.6 | – | 1.061
328.15 K | 830 | – | 9.12 | 1.997 | 0.819

CC[n+]1ccn(C)c1.N#C[S-] + CCO
101 kPa
Conditions | viscosity [mPa·s]
283.15 K, x1 = 0.8045 | 22.86
283.15 K, x1 = 0.8971 | 29.28
293.15 K, x1 = 0.8971 | 20.53
303.15 K, x1 = 0.0504 | 1.31
303.15 K, x1 = 0.2012 | 2.31
303.15 K, x1 = 0.951 | 17.12
313.15 K, x1 = 0.0504 | 1.1
313.15 K, x1 = 0.6016 | 6.04
313.15 K, x1 = 0.7018 | 7.47
313.15 K, x1 = 0.8971 | 11.5
313.15 K, x1 = 1 | 14.3
323.15 K, x1 = 0.7018 | 6.02
323.15 K, x1 = 0.951 | 10.17

C[N+](C)(C)CCC[N+]1(C)CCCCC1.N#C[N-]C#N.N#C[N-]C#N + CCO
viscosity [mPa·s], 100 kPa
Conditions | x1 = 0.0999 | x1 = 0.2001 | x1 = 0.3002 | x1 = 0.3999 | x1 = 0.5002 | x1 = 0.6001 | x1 = 0.7003 | x1 = 0.7998 | x1 = 0.8995 | x1 = 1
293.15 K | 6.82 | 19.7 | 47.6 | 115 | 280 | 596 | 1088 | 1716 | 2737 | 4503
303.15 K | 5.39 | 15 | 33 | 73.3 | 164 | 330 | 545 | 830 | 1240 | 1837
313.15 K | 4.38 | 11.6 | 24.1 | 49.6 | 106 | 211 | 310 | 461 | 624 | 860
323.15 K | 3.68 | 9.19 | 18.1 | 35.2 | 70.5 | 132 | 192 | 267 | 360 | 460
333.15 K | 3.18 | 7.55 | 14.1 | 26.2 | 50.7 | 85.9 | 126 | 171 | 219 | 270

CCOC(C)(C)C + CCO + CCOS(=O)(=O)[O-].CC[n+]1ccn(C)c1
298.15 K, 101 kPa
Conditions | viscosity [mPa·s]
x2 = 0.1248, x1 = 0.0174 | 63
x2 = 0.1973, x1 = 0.0324 | 46.3
x2 = 0.3162, x1 = 0.029 | 30.74
x2 = 0.395, x1 = 0.0475 | 21.09
x2 = 0.4866, x1 = 0.0465 | 14.2
x2 = 0.5653, x1 = 0.0501 | 9.77
x2 = 0.6539, x1 = 0.3132 | 0.878
x2 = 0.6567, x1 = 0.0845 | 5.13
x2 = 0.6872, x1 = 0.0848 | 4.39
x2 = 0.6916, x1 = 0.2368 | 1.352
x2 = 0.6923, x1 = 0.035 | 5.65
x2 = 0.7064, x1 = 0.1236 | 3.102
x2 = 0.7089, x1 = 0.2556 | 0.974
x2 = 0.7162, x1 = 0.1736 | 1.937
x2 = 0.7254, x1 = 0.0338 | 4.79
x2 = 0.7605, x1 = 0.0564 | 3.565
x2 = 0.7622, x1 = 0.1589 | 1.568
x2 = 0.7999, x1 = 0.077 | 2.401
x2 = 0.8182, x1 = 0.1407 | 1.208
x2 = 0.841, x1 = 0.072 | 1.86
x2 = 0.902, x1 = 0.0527 | 1.428

CCCCCCCCCCCCOS(=O)(=O)[O-].[Na+] + CCO + O
298 K, 100 kPa, frequency 0.001 MHz
Conditions | electrical conductivity [S/m]
x2 = 0.02563, x3 = 0.9741 | 0.0809
x2 = 0.06861, x3 = 0.9309 | 0.103
x2 = 0.06862, x3 = 0.9311 | 0.0828
